This is an account of results in PubChem BioAssay AID248 (DTP/NCI, 2004).

Structures are written as SMILES. Values joined by “and” are separate entries in the source; they are usually repeats but may differ in a detail not shown here. Equal values may be shown once. Toxic doses and inconclusive results are not listed.

The assay has as its system L1210 leukemia ip in BDF1 mice, survival T/C. Kind of assay: NCI In Vivo Anticancer Drug Screen. Data for tumor model L1210 Leukemia (intraperitoneal) in B6D2F1 (BDF1) mice. As to conditions: endpoint: mean survival time, higher = longer survival. The method in brief:
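Survival endpoint. Drug-treated group vs vehicle group, expressed as T divided by C. Tumor passaged by transplantation.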

The mark [1] stands for this setting: dose: 100.0 mg/kg/injection, schedule: Q01DX009 (ip), vehicle: saline.
[2] abbreviates: dose: 100.0 mg/kg/injection, schedule: Q01DX001 (ip), vehicle: saline.
Where [3] appears, read: dose: 200.0 mg/kg/injection, schedule: Q01DX001 (ip), vehicle: saline.
[4] abbreviates: dose: 400.0 mg/kg/injection, schedule: Q01DX001 (ip), vehicle: saline.
Setting [5] is: dose: 100.0 mg/kg/injection, schedule: Q01DX009 (ip), vehicle: saline with Tween-80.
Setting [6] is: dose: 100.0 mg/kg/injection, schedule: Q04DX003 (ip), vehicle: saline with Tween-80.
Where [7] appears, read: dose: 200.0 mg/kg/injection, schedule: Q04DX003 (ip), vehicle: saline with Tween-80.
The mark [8] stands for this setting: dose: 400.0 mg/kg/injection, schedule: Q04DX003 (ip), vehicle: saline with Tween-80.

With `CC(C)(CNc1ccc(C(=O)O)cc1)[N+](=O)[O-]`, the T/C reads like this: under setting [1], 93 % of control; (dose: 100.0 mg/kg/injection, schedule: Q04DX003 (ip), vehicle: saline) 95 % of control; (dose: 200.0 mg/kg/injection, schedule: Q01DX009 (ip), vehicle: saline) 90 % of control; (dose: 200.0 mg/kg/injection, schedule: Q04DX003 (ip), vehicle: saline) 98 % of control; (dose: 400.0 mg/kg/injection, schedule: Q01DX009 (ip), vehicle: saline) 87 % of control; (dose: 400.0 mg/kg/injection, schedule: Q04DX003 (ip), vehicle: saline) 90 % of control.
As to `Clc1ccc2n[nH]c(Cl)c2c1`, the T/C is, setting by setting: (dose: 12.5 mg/kg/injection, schedule: Q01DX009 (ip), vehicle: saline) 95 % of control; (dose: 25.0 mg/kg/injection, schedule: Q01DX009 (ip), vehicle: saline) 101 % of control; (dose: 50.0 mg/kg/injection, schedule: Q01DX009 (ip), vehicle: saline) 98 % of control; under setting [2], 92 % of control; under setting [1], 96 % of control; under setting [3], 92 % of control. The T/C under setting [4] was 102 % of control.
`NCCSc1ccccc1`: the T/C is, setting by setting: (dose: 25.0 mg/kg/injection, schedule: Q04DX002 (ip), vehicle: saline with Tween-80) 92 % of control; (dose: 50.0 mg/kg/injection, schedule: Q04DX002 (ip), vehicle: saline with Tween-80) 101 % of control; (dose: 100.0 mg/kg/injection, schedule: Q04DX002 (ip), vehicle: saline with Tween-80) 96 % of control and 114 % of control.
For `O=c1[nH]c(Cl)nc2c(Cl)c(C(Cl)(Cl)Cl)nn12`, the T/C by setting is: under setting [5], 95 % of control; under setting [6], 101 % of control; (dose: 200.0 mg/kg/injection, schedule: Q01DX009 (ip), vehicle: saline with Tween-80) 93 % of control; under setting [7], 94 % of control; under setting [8], 92 % of control.
In the case of `S=C(CC(C(=S)N1CCOCC1)N1CCOCC1)N1CCOCC1` (centres undefined), the T/C is 98 % of control (dose: 25.6 mg/kg/injection, schedule: Q04DX002 (ip), vehicle: saline with Tween-80); 102 % of control (dose: 64.0 mg/kg/injection, schedule: Q04DX002 (ip), vehicle: saline with Tween-80); 98 % of control under setting [6]; 87 % of control (dose: 160.0 mg/kg/injection, schedule: Q04DX002 (ip), vehicle: saline with Tween-80); 104 % of control under setting [7]; 98 % of control (dose: 400.0 mg/kg/injection, schedule: Q04DX002 (ip), vehicle: saline with Tween-80). In addition, under setting [8], the T/C was 101 % of control.
On to `C[n+]1c(-c2ccccc2)c2ccccc2c2ccccc21`, for which the T/C (dose: 0.78 mg/kg/injection, schedule: Q01DX009 (ip), vehicle: water) was 91 % of control; the T/C (dose: 1.56 mg/kg/injection, schedule: Q01DX009 (ip), vehicle: water) was 96 % of control; the T/C (dose: 1.56 mg/kg/injection, schedule: Q04DX003 (ip), vehicle: water) is 103 % of control; the T/C (dose: 3.12 mg/kg/injection, schedule: Q01DX009 (ip), vehicle: water) is 93 % of control; the T/C (dose: 3.12 mg/kg/injection, schedule: Q04DX003 (ip), vehicle: water) is 97 % of control; the T/C (dose: 6.25 mg/kg/injection, schedule: Q04DX003 (ip), vehicle: water) was 108 % of control.
For `CNC(CCC(=O)O)C(=O)O` (centres undefined), the T/C was 89 % of control under setting [2], 96 % of control under setting [3] and 91 % of control under setting [4].
With `O=[N+]([O-])c1ccc(S(=O)(=O)Nc2ccc(-c3ccccc3)cc2)cc1`, the T/C runs as follows: (dose: 100.0 mg/kg/injection, schedule: Q01DX009 (ip), vehicle: other) 110 % of control; (dose: 100.0 mg/kg/injection, schedule: Q04DX003 (ip), vehicle: other) 93 % of control; (dose: 200.0 mg/kg/injection, schedule: Q01DX009 (ip), vehicle: other) 98 % of control; (dose: 200.0 mg/kg/injection, schedule: Q04DX003 (ip), vehicle: other) 96 % of control; (dose: 400.0 mg/kg/injection, schedule: Q01DX009 (ip), vehicle: other) 94 % of control; (dose: 400.0 mg/kg/injection, schedule: Q04DX003 (ip), vehicle: other) 89 % of control.
As for `CO[C@@H](C=O)O[C@@H](C=O)CO`, the T/C runs as follows: (dose: 35.0 mg/kg/injection, schedule: Q01DX009 (ip), vehicle: water) 115 % of control; (dose: 35.0 mg/kg/injection, schedule: Q01DX Z (ip), vehicle: water) 115 % of control; (dose: 70.0 mg/kg/injection, schedule: Q01DX009 (ip), vehicle: water) 123 % of control; (dose: 70.0 mg/kg/injection, schedule: Q01DX Z (ip), vehicle: water) 122 % of control; (dose: 280.0 mg/kg/injection, schedule: Q01DX009 (ip), vehicle: water) 153 % of control; (dose: 280.0 mg/kg/injection, schedule: Q01DX Z (ip), vehicle: water) 160 % of control.
`Cc1ccccc1OCc1nc(-c2ccc(N(CCCl)CCCl)cc2)cs1`: the T/C (dose: 100.0 mg/kg/injection, schedule: Q01DX001 (ip), vehicle: carboxymethylcellulose (CMC)) is 101 % of control; the T/C (dose: 200.0 mg/kg/injection, schedule: Q01DX001 (ip), vehicle: carboxymethylcellulose (CMC)) was 113 % of control; the T/C (dose: 400.0 mg/kg/injection, schedule: Q01DX001 (ip), vehicle: carboxymethylcellulose (CMC)) is 104 % of control.
`CC1C(c2ccccc2)OCN1CN1C(=O)C=CC1=O` (centres undefined) (tested in a mixture with another compound): the T/C under setting [6] is 90 % of control.
As for `CC(=O)NC1C(OC(=O)c2ccccc2)OC(CO)C(O)C1OC(=O)c1ccccc1` (centres undefined), the T/C (dose: 100.0 mg/kg/injection, schedule: Q01DX001 (ip), vehicle: saline with Tween-80) is 101 % of control; the T/C (dose: 200.0 mg/kg/injection, schedule: Q01DX001 (ip), vehicle: saline with Tween-80) is 105 % of control; the T/C (dose: 400.0 mg/kg/injection, schedule: Q01DX001 (ip), vehicle: saline with Tween-80) is 94 % of control.
On to `CCOC(=O)C12CCCC1=CC(=O)CC2` (centres undefined), for which the T/C was 107 % of control (dose: 100.0 mg/kg/injection, schedule: Q04DX002 (ip), vehicle: Klucel (hydroxypropylcellulose) (HPC)); 121 % of control (dose: 200.0 mg/kg/injection, schedule: Q04DX002 (ip), vehicle: Klucel (hydroxypropylcellulose) (HPC)); 104 % of control (dose: 400.0 mg/kg/injection, schedule: Q04DX002 (ip), vehicle: Klucel (hydroxypropylcellulose) (HPC)).
On to `CC(C)(O)CNS(=O)(=O)c1ccc(Br)cc1`, for which the T/C is, setting by setting: (dose: 100.0 mg/kg/injection, schedule: Q01DX009 (ip), vehicle: Klucel (hydroxypropylcellulose) (HPC)) 105 % of control; (dose: 200.0 mg/kg/injection, schedule: Q01DX009 (ip), vehicle: Klucel (hydroxypropylcellulose) (HPC)) 101 % of control.
Regarding `CC/C=C(\C)C1(CC)C(=O)NC(=S)NC1=O`, the T/C (dose: 75.0 mg/kg/injection, schedule: Q01DX001 (ip), vehicle: carboxymethylcellulose (CMC)) is 89 % of control.
As to `Cc1ccccc1-c1nc2cc(Cl)ccc2c(=O)o1`, the T/C was 98 % of control (dose: 25.0 mg/kg/injection, schedule: Q01DX009 (ip), vehicle: saline with Tween-80); 88 % of control (dose: 50.0 mg/kg/injection, schedule: Q01DX009 (ip), vehicle: saline with Tween-80); 96 % of control under setting [5]; 100 % of control under setting [6]; 102 % of control under setting [7]; 108 % of control under setting [8].
On to `NNC(=S)N/N=C/c1ccccc1`, for which the T/C by setting is: (dose: 100.0 mg/kg/injection, schedule: Q01DX001 (ip), vehicle: Klucel (hydroxypropylcellulose) (HPC)) 93 % of control; (dose: 200.0 mg/kg/injection, schedule: Q01DX001 (ip), vehicle: Klucel (hydroxypropylcellulose) (HPC)) 93 % of control; (dose: 400.0 mg/kg/injection, schedule: Q01DX001 (ip), vehicle: Klucel (hydroxypropylcellulose) (HPC)) 100 % of control.
As for `COC1=CCC2=C(C1)CC(C)O2` (centres undefined), the T/C was 93 % of control (dose: 100.0 mg/kg/injection, schedule: Q04DX003 (ip), vehicle: acetone); 102 % of control (dose: 200.0 mg/kg/injection, schedule: Q04DX003 (ip), vehicle: acetone); 93 % of control (dose: 400.0 mg/kg/injection, schedule: Q04DX003 (ip), vehicle: acetone).
